From patent publication US20060128769A1, “Thiazoyl biphenyl amides” (priority 2002, published 2006)
Where two headings read alike, the source gives them in different places.

How the values were obtained:
[1] = logP determination by HPLC on a reversed-phase column (C 18), EEC Directive 79/831 Annex V.A8; format: physicochemical; settings: reversed-phase HPLC column (C 18)
Method: The logP values given in the preparation examples and tables above are determined in accordance with EEC Directive 79/831 Annex V.A8 by HPLC (High Performance Liquid Chromatography) using a reversed-phase column (C 18). Temperature: 43° C. The determination is carried out in the acidic range at pH 2.3 using the mobile phases 0.1% aqueous phosphoric acid and acetonitrile; linear gradient from 10% acetonitrile to 90% acetonitrile. Calibration is carried out using unbranched alkan-2-ones (having 3 to 16 carbon atoms) with known logP values (determination of the logP values by the retention times using linear interpolation between two successive alkanones).

Sphaerotheca fuliginea = experiment: Sphaerotheca test (cucumber)/protective; format: in vivo; settings: Podosphaera fuliginea, 168 h, protective, application rate 100 g/ha, evaluation 7 days after inoculation, read-out: % efficacy
Method: • Solvents: 24.5 parts by weight of acetone 24.5 parts by weight of dimethylacetamide • Emulsifier: 1 part by weight of alkylaryl polyglycol ether
(§1) To produce a suitable preparation of active compound, 1 part by weight of active compound is mixed with the stated amounts of solvents and emulsifier, and the concentrate is diluted with water to the desired concentration.
To test for protective activity, young plants are sprayed with the preparation of active compound at the stated application rate. After the spray coating has dried on, the plants are inoculated with an aqueous spore suspension of Sphaerotheca fuliginea. The plants are then placed in a greenhouse at about 23° C. and a relative atmospheric humidity of about 70%.
Evaluation is carried out 7 days after the inoculation. 0% means an efficacy which corresponds to that of the control, whereas an efficacy of 100% means that no infection is observed.

Venturia inaequalis = experiment: Venturia test (apple)/protective; format: in vivo; settings: 240 h, protective, application rate 100 g/ha, evaluation 10 days after inoculation, read-out: % efficacy
Method: (§2) • Solvents: 24.5 parts by weight of acetone 24.5 parts by weight of dimethylacetamide • Emulsifier: 1.0 part by weight of alkylaryl polyglycol ether
as §1
To test for protective activity, young plants are sprayed with the preparation of active compound at the stated application rate. After the spray coating has dried on, the plants are inoculated with an aqueous conidia suspension of the apple scab pathogen Venturia inaequalis and then remain in an incubation cabin at about 20° C. and 100% relative atmospheric humidity for one day.
The plants are then placed in a greenhouse at about 21° C. and a relative atmospheric humidity of about 90%.
Evaluation is carried out 10 days after the inoculation. 0% means an efficacy which corresponds to that of the control, whereas an efficacy of 100% means that no infection is observed.

Botrytis cinerea = experiment: Botrytis test (bean)/protective; format: in vivo; settings: 48 h, protective, application rate 500 g/ha, evaluation 2 days after inoculation, read-out: % efficacy
Method: as §2, §1
To test for protective activity, young plants are sprayed with the preparation of active compound at the stated application rate. After the spray coating has dried on, 2 small pieces of agar colonized by Botrytis cinerea are placed onto each leaf. The inoculated plants are placed in a dark chamber at about 20° C. and 100% relative atmospheric humidity.
2 days after the inoculation, the size of the infected areas on leaves is evaluated. 0% means an efficacy which corresponds to that of the control, whereas an efficacy of 100% means that no infection is observed.

Alternaria solani = experiment: Alternaria test (tomato)/protective; format: in vivo; settings: 168 h, protective, application rate 750 g/ha, evaluation 7 days after inoculation, read-out: % efficacy
Method: • Solvent: 49 parts by weight of N,N-dimethylformaide • Emulsifier: 1 part by weight of alkylaryl polyglycol ether To produce a suitable preparation of active compound, 1 part by weight of active compound is mixed with the stated amounts of solvent and emulsifier, and the concentrate is diluted with water to the desired concentration. To test for protective activity, young tomato plants are sprayed with the preparation of active compound at the stated application rate. 1 day after the treatment, the plants are inoculated with an aqueous spore suspension of Alternaria solani and then remain at 100% relative humidity for 24 hours. The plants then remain at about 96% relative atmospheric humidity and a temperature of 20° C. Evaluation is carried out 7 days after the inoculation. 0% means an efficacy which corresponds to that of the control, whereas an efficacy of 100% means that no infection is observed.

[2] = pH 2.3, HPLC reversed-phase C 18, 43° C., 0.1% aqueous phosphoric acid/acetonitrile, read-out: logP (pH 2.3)
[3] = Table 1, acidic range pH 2.3, HPLC reversed-phase C 18, 43° C., read-out: logP

Row | SMILES | chromatographic logP [1, 2] | chromatographic logP [1, 3] | melting point [°C] | Emax at 100 g/ha (Sphaerotheca fuliginea) [%] | Emax at 100 g/ha (Venturia inaequalis) [%] | Emax at 500 g/ha (Botrytis cinerea) [%] | Emax at 750 g/ha (Alternaria solani) [%]
1 | CC(=O)N(C(=O)c1sc(C)nc1C(F)F)c1ccccc1-c1ccc(Br)cc1 [Example 1, N-acetyl-N-(4′-bromo-1,1′-biphenyl-2-yl)-4-(difluoromethyl)-2-methyl-1,3-thiazole-5-carboxamide] | 3.61 |  |  | 100 | 100 | 98 | 
2 | Cc1nc(C(F)F)c(C(=O)N(C)c2ccccc2-c2ccc(Cl)cc2)s1 [Example 2] | 3.34 |  |  | 95 |  |  | 
3 | Cc1nc(C(F)F)c(C(=O)N(C(=O)c2sc(C)nc2C(F)F)c2ccccc2-c2cc(Cl)cc(Cl)c2)s1 [Example 4] |  | 4.28 |  | 100 | 99 | 94 | 95
4 | Cc1nc(C(F)F)c(C(=O)N(C)c2ccccc2-c2ccc(Br)cc2)s1 [Example 6] |  | 3.44 |  | 100 |  |  | 

The next lines start with results.

Row | chromatographic logP [1, 2] | chromatographic logP [1, 3] | melting point [°C] | SMILES | Emax at 100 g/ha (Sphaerotheca fuliginea) [%] | Emax at 100 g/ha (Venturia inaequalis) [%] | Emax at 500 g/ha (Botrytis cinerea) [%] | Emax at 750 g/ha (Alternaria solani) [%]
5 | 3.34 |  | 151 | Cc1nc(C(F)F)c(C(=O)Nc2ccccc2-c2ccc(Br)cc2)s1 [II-1, N-(4′-bromo-1,1′-biphenyl-2-yl)-2-methyl-4-(difluoromethyl)-1,3-thiazole-5-carboxamide] |  |  |  | 
6 | 3.26 |  | 144 | Cc1nc(C(F)F)c(C(=O)Nc2ccccc2-c2ccc(Cl)cc2)s1 [II-2, N-(4′-chloro-1,1′-biphenyl-2-yl)-2-methyl-4-(difluoromethyl)-1,3-thiazole-5-carboxamide] |  |  |  | 
